Legend:
Insulin receptor = Insulin receptor (Rattus norvegicus, UniProt P15127); type: cell membranes, Wistar, Liver, Membrane; also: in other assays of this panel Not Active means under 50% inhibition at 10 µM
[1] = DRUGMATRIX: Leukotriene, BLT (LTB4) radioligand binding (ligand: [3H]LTB4); type: cell membranes, Membrane; conditions: u-937; Not Active = under 50% inhibition at 10 µM
[2] = target: T1, Muscarinic acetylcholine receptor M2 (Homo sapiens, UniProt P08172); type: cell membranes, CHO-K1, Membrane; conditions: cho-k1; also: in other assays of this panel Not Active means under 50% inhibition at 10 µM
T1 sequence (P08172 whole entry): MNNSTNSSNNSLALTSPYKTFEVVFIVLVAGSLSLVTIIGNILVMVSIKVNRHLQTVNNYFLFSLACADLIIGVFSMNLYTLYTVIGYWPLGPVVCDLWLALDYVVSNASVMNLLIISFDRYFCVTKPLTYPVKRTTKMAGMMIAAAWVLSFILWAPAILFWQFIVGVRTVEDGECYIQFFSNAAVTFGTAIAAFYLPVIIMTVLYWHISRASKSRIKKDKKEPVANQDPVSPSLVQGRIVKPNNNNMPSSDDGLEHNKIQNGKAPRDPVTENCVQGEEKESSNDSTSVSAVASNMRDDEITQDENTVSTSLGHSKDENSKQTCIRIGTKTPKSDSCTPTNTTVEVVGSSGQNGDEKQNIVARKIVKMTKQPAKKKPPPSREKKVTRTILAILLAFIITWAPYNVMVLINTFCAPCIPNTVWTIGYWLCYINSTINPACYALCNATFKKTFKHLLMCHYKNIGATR

Melanocortin receptor 4 = Melanocortin receptor 4 (Homo sapiens, UniProt P32245); type: cell membranes, Membrane; conditions: hek293; also: in other assays of this panel Not Active means under 50% inhibition at 10 µM
Chain of Melanocortin receptor 4 (P32245 whole entry): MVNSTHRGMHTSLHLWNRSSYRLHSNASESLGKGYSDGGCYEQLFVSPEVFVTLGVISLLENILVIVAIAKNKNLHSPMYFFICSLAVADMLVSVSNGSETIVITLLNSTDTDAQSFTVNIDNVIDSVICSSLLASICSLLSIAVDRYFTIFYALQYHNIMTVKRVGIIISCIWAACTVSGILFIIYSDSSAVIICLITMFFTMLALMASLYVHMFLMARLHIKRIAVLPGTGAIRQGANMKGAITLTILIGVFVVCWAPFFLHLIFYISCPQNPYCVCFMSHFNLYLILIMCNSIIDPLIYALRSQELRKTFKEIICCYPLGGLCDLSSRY

[3] = DRUGMATRIX: Glutamate, NMDA, Phencyclidine radioligand binding (ligand: [3H] TCP); type: cell membranes, Rattus norvegicus, Wistar, Cerebral cortex, Membrane; conditions: Not Active = under 50% inhibition at 10 µM
[4] = DRUGMATRIX: GABAA, Flunitrazepam, Central radioligand binding (ligand: [3H] Flunitrazepam); type: cell membranes, Rattus norvegicus, Wistar, Brain, Membrane; conditions: Not Active = under 50% inhibition at 10 µM
[5] = DRUGMATRIX: Phosphodiesterase PDE3 enzyme inhibition (substrate: [3H]cAMP + cAMP); type: tissue-based, Homo sapiens; conditions: platelet; Not Active = under 50% inhibition at 10 µM
Cytochrome P450 3A4 = Cytochrome P450 3A4 (Homo sapiens, UniProt P08684); conditions: bti-tn-5b1-4; also: in other assays of this panel Not Active means under 50% inhibition at 10 µM
Chain of Cytochrome P450 3A4 (P08684 whole entry): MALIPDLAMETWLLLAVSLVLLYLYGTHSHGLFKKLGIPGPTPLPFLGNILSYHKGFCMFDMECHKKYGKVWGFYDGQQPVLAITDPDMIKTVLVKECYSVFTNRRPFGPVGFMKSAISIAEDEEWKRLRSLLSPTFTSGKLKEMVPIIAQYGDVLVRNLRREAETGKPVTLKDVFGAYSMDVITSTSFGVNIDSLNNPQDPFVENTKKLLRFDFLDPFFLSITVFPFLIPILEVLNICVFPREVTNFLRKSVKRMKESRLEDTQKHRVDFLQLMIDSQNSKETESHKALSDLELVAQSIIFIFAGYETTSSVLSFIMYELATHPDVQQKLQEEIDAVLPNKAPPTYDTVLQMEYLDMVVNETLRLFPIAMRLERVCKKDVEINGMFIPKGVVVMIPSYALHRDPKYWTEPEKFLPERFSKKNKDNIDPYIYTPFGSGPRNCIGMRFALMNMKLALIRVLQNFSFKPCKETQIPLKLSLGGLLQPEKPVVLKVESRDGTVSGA

Mu-type opioid receptor = Mu-type opioid receptor (Homo sapiens, UniProt P35372); experiment: DRUGMATRIX: Opiate mu (OP3, MOP) radioligand binding (ligand: [3H] Diprenorphine); type: cell membranes, CHO-K1, Membrane; conditions: cho-k1; Not Active = under 50% inhibition at 10 µM
Chain of Mu-type opioid receptor (P35372 whole entry): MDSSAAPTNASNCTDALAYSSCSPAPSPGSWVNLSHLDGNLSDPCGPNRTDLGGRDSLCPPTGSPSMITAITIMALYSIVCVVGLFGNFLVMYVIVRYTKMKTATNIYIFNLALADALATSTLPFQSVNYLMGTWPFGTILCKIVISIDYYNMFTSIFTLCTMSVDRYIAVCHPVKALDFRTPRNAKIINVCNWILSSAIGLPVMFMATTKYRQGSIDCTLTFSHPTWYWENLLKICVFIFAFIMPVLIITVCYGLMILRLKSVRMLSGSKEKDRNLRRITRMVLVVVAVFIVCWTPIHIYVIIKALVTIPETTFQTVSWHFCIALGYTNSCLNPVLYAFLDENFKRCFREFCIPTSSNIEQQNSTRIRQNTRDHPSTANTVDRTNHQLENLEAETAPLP

Chain of Insulin receptor (P15127 27-759 limits assumed): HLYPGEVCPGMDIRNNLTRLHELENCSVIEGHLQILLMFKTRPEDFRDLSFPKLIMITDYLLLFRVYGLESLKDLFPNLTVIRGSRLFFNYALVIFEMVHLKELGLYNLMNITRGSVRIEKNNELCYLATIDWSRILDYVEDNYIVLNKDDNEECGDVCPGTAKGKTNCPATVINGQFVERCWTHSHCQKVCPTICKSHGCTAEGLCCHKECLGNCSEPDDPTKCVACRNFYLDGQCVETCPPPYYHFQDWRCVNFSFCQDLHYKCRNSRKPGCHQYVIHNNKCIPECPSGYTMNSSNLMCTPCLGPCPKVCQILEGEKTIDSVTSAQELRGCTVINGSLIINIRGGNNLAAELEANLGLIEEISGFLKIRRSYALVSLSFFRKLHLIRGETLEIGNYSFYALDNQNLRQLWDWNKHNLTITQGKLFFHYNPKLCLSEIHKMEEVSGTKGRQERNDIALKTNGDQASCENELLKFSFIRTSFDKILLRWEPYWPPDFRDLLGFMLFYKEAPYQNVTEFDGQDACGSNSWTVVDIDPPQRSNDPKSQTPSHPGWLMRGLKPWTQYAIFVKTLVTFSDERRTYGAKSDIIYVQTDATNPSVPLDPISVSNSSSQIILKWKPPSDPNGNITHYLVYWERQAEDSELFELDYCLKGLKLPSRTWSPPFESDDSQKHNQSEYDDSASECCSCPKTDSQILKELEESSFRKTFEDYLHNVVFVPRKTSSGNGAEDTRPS
Chain of Insulin receptor (P15127 764-1383 limits assumed): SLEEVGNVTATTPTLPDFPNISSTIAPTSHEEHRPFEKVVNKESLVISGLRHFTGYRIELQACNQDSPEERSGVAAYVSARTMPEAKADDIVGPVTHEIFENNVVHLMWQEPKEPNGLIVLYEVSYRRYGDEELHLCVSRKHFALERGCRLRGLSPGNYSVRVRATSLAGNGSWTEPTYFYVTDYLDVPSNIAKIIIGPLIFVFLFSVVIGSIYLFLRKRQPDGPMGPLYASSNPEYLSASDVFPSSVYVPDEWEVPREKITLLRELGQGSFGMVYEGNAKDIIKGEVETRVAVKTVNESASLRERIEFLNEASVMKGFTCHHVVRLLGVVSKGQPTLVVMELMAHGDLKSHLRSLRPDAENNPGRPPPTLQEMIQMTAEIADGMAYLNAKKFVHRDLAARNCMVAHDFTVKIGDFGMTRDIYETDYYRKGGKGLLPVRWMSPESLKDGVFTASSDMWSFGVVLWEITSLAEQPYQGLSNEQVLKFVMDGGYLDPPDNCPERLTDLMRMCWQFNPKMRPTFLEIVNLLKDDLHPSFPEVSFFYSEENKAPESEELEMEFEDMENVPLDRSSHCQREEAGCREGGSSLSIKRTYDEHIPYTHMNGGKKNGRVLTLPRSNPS

CNS(=O)(=O)Cc1ccc2[nH]cc(CCN(C)C)c2c1
Not Active: IC50 (Insulin receptor) | IC50 [1] | Ki [1] | IC50 [2] | IC50 (Melanocortin receptor 4) | IC50 [3] | Ki [3] | IC50 [4] | Ki [4] | IC50 [5] | Ki [5] | IC50 (Cytochrome P450 3A4) | Ki (Cytochrome P450 3A4) | IC50 (Mu-type opioid receptor)

CCCc1nn(C)c2c(=O)[nH]c(-c3cc(S(=O)(=O)N4CCN(C)CC4)ccc3OCC)nc12
Not Active: IC50 (Insulin receptor) | IC50 [1] | Ki [1] | IC50 [2] | IC50 (Melanocortin receptor 4) | IC50 [3] | Ki [3] | IC50 [4] | Ki [4] | IC50 [5] | Ki [5] | IC50 (Cytochrome P450 3A4) | Ki (Cytochrome P450 3A4) | IC50 (Mu-type opioid receptor)

CCOC(N)=O
Not Active: IC50 (Insulin receptor) | IC50 [1] | Ki [1] | IC50 [2] | IC50 (Melanocortin receptor 4) | IC50 [3] | Ki [3] | IC50 [4] | Ki [4] | IC50 [5] | Ki [5] | IC50 (Cytochrome P450 3A4) | Ki (Cytochrome P450 3A4) | IC50 (Mu-type opioid receptor)

CC1=C(CC(=O)O)c2cc(F)ccc2/C1=C\c1ccc(S(C)(=O)=O)cc1 [EXISULIND]
Not Active: IC50 (Insulin receptor) | IC50 [1] | Ki [1] | IC50 [2] | IC50 (Melanocortin receptor 4) | IC50 [3] | Ki [3] | IC50 [4] | Ki [4] | IC50 [5] | Ki [5] | IC50 (Cytochrome P450 3A4) | Ki (Cytochrome P450 3A4) | IC50 (Mu-type opioid receptor)

Nc1nc2c(c(=O)[nH]1)N(C=O)C(CNc1ccc(C(=O)N[C@@H](CCC(=O)O)C(=O)O)cc1)CN2 (stereo partly specified) [LEUCOVORIN]
Not Active: IC50 (Insulin receptor) | IC50 [1] | Ki [1] | IC50 [2] | IC50 (Melanocortin receptor 4) | IC50 [3] | Ki [3] | IC50 [4] | Ki [4] | IC50 [5] | Ki [5] | IC50 (Cytochrome P450 3A4) | Ki (Cytochrome P450 3A4) | IC50 (Mu-type opioid receptor)

C[C@@H](O)[C@H]1C(=O)N2C(C(=O)O)=C(S[C@@H]3CN[C@H](C(=O)N(C)C)C3)[C@H](C)[C@H]12 [MEROPENEM]
Not Active: IC50 (Insulin receptor) | IC50 [1] | Ki [1] | IC50 [2] | IC50 (Melanocortin receptor 4) | IC50 [3] | Ki [3] | IC50 [4] | Ki [4] | IC50 [5] | Ki [5] | IC50 (Cytochrome P450 3A4) | Ki (Cytochrome P450 3A4) | IC50 (Mu-type opioid receptor)

O=P(O)(O)C(O)(Cc1cccnc1)P(=O)(O)O [RISEDRONIC ACID]
Not Active: IC50 (Insulin receptor) | IC50 [1] | Ki [1] | IC50 [2] | IC50 (Melanocortin receptor 4) | IC50 [3] | Ki [3] | IC50 [4] | Ki [4] | IC50 [5] | Ki [5] | IC50 (Cytochrome P450 3A4) | Ki (Cytochrome P450 3A4) | IC50 (Mu-type opioid receptor)

C#CCN(C)[C@H](C)Cc1ccccc1 [SELEGILINE]
Not Active: IC50 (Insulin receptor) | IC50 [1] | Ki [1] | IC50 [2] | IC50 (Melanocortin receptor 4) | IC50 [3] | Ki [3] | IC50 [4] | Ki [4] | IC50 [5] | Ki [5] | IC50 (Cytochrome P450 3A4) | Ki (Cytochrome P450 3A4) | IC50 (Mu-type opioid receptor)

CN[C@@H]1[C@H](O)[C@H](NC)[C@H]2O[C@@]3(O)C(=O)C[C@@H](C)O[C@H]3O[C@@H]2[C@H]1O [SPECTINOMYCIN]
Not Active: IC50 (Insulin receptor) | IC50 [1] | Ki [1] | IC50 [2] | IC50 (Melanocortin receptor 4) | IC50 [3] | Ki [3] | IC50 [4] | Ki [4] | IC50 [5] | Ki [5] | IC50 (Cytochrome P450 3A4) | Ki (Cytochrome P450 3A4) | IC50 (Mu-type opioid receptor)

Nc1ccc(S(=O)(=O)Nc2ncccn2)cc1 [SULFADIAZINE]
Not Active: IC50 (Insulin receptor) | IC50 [1] | Ki [1] | IC50 [2] | IC50 (Melanocortin receptor 4) | IC50 [3] | Ki [3] | IC50 [4] | Ki [4] | IC50 [5] | Ki [5] | IC50 (Cytochrome P450 3A4) | Ki (Cytochrome P450 3A4) | IC50 (Mu-type opioid receptor)

COc1ncnc(NS(=O)(=O)c2ccc(N)cc2)c1OC [SULFADOXINE]
Not Active: IC50 (Insulin receptor) | IC50 [1] | Ki [1] | IC50 [2] | IC50 (Melanocortin receptor 4) | IC50 [3] | Ki [3] | IC50 [4] | Ki [4] | IC50 [5] | Ki [5] | IC50 (Cytochrome P450 3A4) | Ki (Cytochrome P450 3A4) | IC50 (Mu-type opioid receptor)

Nc1ccc(S(=O)(=O)Nc2nccs2)cc1 [SULFATHIAZOLE]
Not Active: IC50 (Insulin receptor) | IC50 [1] | Ki [1] | IC50 [2] | IC50 (Melanocortin receptor 4) | IC50 [3] | Ki [3] | IC50 [4] | Ki [4] | IC50 [5] | Ki [5] | IC50 (Cytochrome P450 3A4) | Ki (Cytochrome P450 3A4) | IC50 (Mu-type opioid receptor)

C[C@]12CC[C@H]3[C@@H](CCC4=CC(=O)CC[C@@]43C)[C@@H]1CC[C@@H]2O [TESTOSTERONE]
Not Active: IC50 (Insulin receptor) | IC50 [1] | Ki [1] | IC50 [2] | IC50 (Melanocortin receptor 4) | IC50 [3] | Ki [3] | IC50 [4] | Ki [4] | IC50 [5] | Ki [5] | IC50 (Cytochrome P450 3A4) | Ki (Cytochrome P450 3A4) | IC50 (Mu-type opioid receptor)

C[C@@H]1C[C@H]2[C@@H]3CCC4=CC(=O)C=C[C@]4(C)C3=CC[C@]2(C)[C@H]1C(=O)CN1CCN(c2cc(N3CCCC3)nc(N3CCCC3)n2)CC1 [TIRILAZAD]
Not Active: IC50 (Insulin receptor) | IC50 [1] | Ki [1] | IC50 [2] | IC50 (Melanocortin receptor 4) | IC50 [3] | Ki [3] | IC50 [4] | Ki [4] | IC50 [5] | Ki [5] | IC50 (Cytochrome P450 3A4) | Ki (Cytochrome P450 3A4) | IC50 (Mu-type opioid receptor)
